Source: patent US5244897A, “Glycyl-p-amino-pyridine for the treatment of senile dementia states” (priority 1989, dated 1993)

How the values were obtained:
[1] = tested on: electroconvulsive shock (ECS) induced amnesia; assay: electroconvulsive shock (ECS) induced amnesia (passive avoidance); format: in vivo, male mice; conditions: n=20; for minimal effective dose: Mus musculus, ip, read-out: Active dose (significantly prolonged the latency)
Experimental: Male mice (body weight 23-26 grams) were used.
Test apparatus and passive avoidance training (acquisition trial) were as described in the previous section.
Immediately after acquisition trial, amnesia was induced by electroconsulsive shock (ECS).
Test compounds were administered intraperitoneally soon afterwards the exposure to ECS.
The test trial was performed 24 h after the acquisition trial: the animals were put in the illuminated compartment an the latency time to enter the unlighted compartment was recorded
(§1) Anti-amnesic activity was calculated according to the following formula.
(§2) % of control = (the mean latency time of test compound treated mice/the
(§3) mean latency time of vehicle treated mice) × 100.

[2] = tested on: scopolamine-induced amnesia; assay: scopolamine-induced amnesia (passive avoidance); format: in vivo, mice; conditions: for minimal effective dose: Mus musculus, ip, read-out: Active dose (significantly prolonged the latency)
Experimental: Test apparatus, mice and passive avoidance training (acquisition trial) were as described in the previous sections (4.2-4.3). The compounds were intraperitoneally administered 30 min. before the acquisition trial.
Amnesia was induced by scolopolamine (1 mg/kg s.c.) given 20 min. prior to the acquisition trial; the test trial was performed after 24 hours.
The animals were put in the illuminated compartment and latency time to enter the dark compartment was recorded.
as §1, §2, §3

[3] = tested on: transcallosal evoked potential from the opposite side cerebral cortex; assay: transcallosal evoked potential; format: in vivo, urethane anesthetized rats; conditions: 0.1 mg/kg i.v., rats
Experimental: (§4) Electric stimulus was given to the callosum of urethane anesthetized rats, and transcallosal evoked potential from the opposite side cerebral cortex was measured.
(§5) The effects of the compounds on the transcallosal evoked potential were studied in rats.

[4] = mean blood pressure (reported with the transcallosal evoked potential study); format: in vivo, rats; conditions: for mean blood pressure: MR-3066 2 mg/kg i.v., physostigmine 0.1 mg/kg i.v.
Experimental: as §4, §5

[5] = tested on: spontaneous EEG (motor cortex, hippocampus, nucleus amygdalae); assay: spontaneous EEG; format: in vivo; conditions: 0.1 mg/kg i.v., rabbits
From the text: Electrodes were chronically implanted in the motor cortex, the hippocampus and the nucleus amygdalae of rabbits (n=4).
The effects of compounds on spontaneous EEG were studied in the animals.

[6] = properties stated in the general summary; format: in vivo; conditions: general statement
[7] = acute convulsant activity after oral administration (Litchfield and Wilcoxon); format: in vivo; conditions: Swiss male mice; for TD50: mouse, in vivo, read-out: CD50 (Convulsant Doses 50)
[8] = tested on: retention of passive avoidance response; assay: learning behavior in normal mice (passive avoidance response); format: in vivo, male mice; conditions: n=20
Experimental: Male mice (body weight ca 20 grams) were used. The test apparatus was a box with a dark compartment and an illuminated one.
The animal was placed in the illuminated compartment, foot-shock was given immediately after the mouse moved in the dark compartement (acquisition trial).
MR-3066 was intraperitoneally administered immediately after the acquisition trial.
The test trial was carried out 24 h following the acquisition trial and the latency time to enter the dark compartment was recorded.
Anti-amnesic activity was calculated according to the following formula:
of control = (the mean latency time of test compound treated mice/the mea
latency time of vehicle treated mice) 100.

[9] = acute toxicity after oral administration (Litchfield and Wilcoxon); format: in vivo; conditions: Swiss mice; for LD50: mouse, in vivo
[10] = tested on: acetylcholine release from the rat's cerebral cortex; assay: acetylcholine release in vivo, acute treatment; conditions: 5.6 mg/kg i.p., anesthetized rats, n=5
Experimental: Effect on acetylcholine release from the rat's cerebral cortex "in vivo"
In this study the Acetylcholine release from the cerebral cortex was investigated in anesthetized rats (n=5) at different times before and after i.p. administration of MR-3066 at a dose of 5.6 mg/kg.

[11] = toxicity after repeated oral administration, 30 days, preliminary study; format: in vivo, male and female Sprague Dawley rat; conditions: 6 mg/kg oral, 30 consecutive days, rat
Experimental: The toxicity of MR-3066 after repeated administration was evaluated in male and female Sprague Dawley rat after oral administration of the drug (6 mg/kg) for 30 consecutive days.

[12] = ECS amnesia, 1 mg/kg i.p., MR-3066 ** P < 0.01 vs control
[13] = ECS amnesia, 2,5 mg/kg i.p., MR-3066 * P < 0.05, THA ** P < 0.01 vs control

Structure (SMILES): CNC(=O)Oc1ccc2c(c1)[C@]1(C)CCN(C)[C@@H]1N2C [Physostigmine]
- Anti-amnesic activity (% of control) ([1]; ECS amnesia, 0,05 mg/kg i.p., * P < 0.05): 165,6 % of control
- Anti-amnesic activity (% of control) ([1]; ECS amnesia, 0,025 mg/kg i.p., * P < 0.05): 172,9 % of control
- Anti-amnesic activity (% of control) ([1]; ECS amnesia, physostigmine 0,1 mg/kg i.p.): 148 % of control
- minimal effective dose ([1]; ECS amnesia): 0.025 to 0.05 mg/kg
- minimal effective dose ([2]; scopolamine amnesia): 0.1 mg/kg
- Active dose (significantly prolonged the latency) ([2]; scopolamine amnesia): 0,1 mg/kg i.p.
- Anti-amnesic activity (% of control) ([2]; scopolamine amnesia, 0,1 mg/kg i.p., * P < 0.05): 155,5 % of control
- Anti-amnesic activity (% of control) ([2]; scopolamine amnesia, 0,05 mg/kg i.p.): 134,5 % of control
- Anti-amnesic activity (% of control) ([2]; scopolamine amnesia, 0,025 mg/kg i.p.): 119,5 % of control
- amplitude of negative wave of transcallosal evoked potential [3]: increased the amplitude of negative wave
- mean blood pressure [4]: raised the mean blood pressure
- mean blood pressure effect versus MR-3066 ([4]; physostigmine 0.1 mg/kg i.v. vs MR-3066 2 mg/kg i.v.): much more marked than MR-3066
- onset of the EEG effects [5]: immediately after the administration

Structure (SMILES): NCC(=O)Nc1ccncc1 [MR-3066, glycyl-p-amino-pyridine monoacetate]
- Anti-amnesic activity (% of control) ([1]; ECS amnesia, 0,1 mg/kg i.p.): 148,2 % of control
- Anti-amnesic activity (% of control) ([1]; ECS amnesia, 0,5 mg/kg i.p.): 121,6 % of control
- Anti-amnesic activity (% of control) ([1]; ECS amnesia, 0,25 mg/kg i.p.): 147,8 % of control
- Anti-amnesic activity (% of control) [1, 12]: 189,6 % of control
- Anti-amnesic activity (% of control) ([1]; ECS amnesia, 5 mg/kg i.p.): 148 % of control
- Anti-amnesic activity (% of control) [1, 13]: 165,5 % of control
- minimal effective dose ([2]; scopolamine amnesia): 1 mg/kg
- Anti-amnesic activity (% of control) ([2]; scopolamine amnesia, 0,5 mg/kg i.p.): 157,6 % of control
- Anti-amnesic activity (% of control) ([2]; scopolamine amnesia, 1 mg/kg i.p., ** P < 0.01 vs controls): 188,1 % of control
- Anti-amnesic activity (% of control) ([2]; scopolamine amnesia, 5 mg/kg i.p.): 159,5 % of control
- Anti-amnesic activity (% of control) ([2]; scopolamine amnesia, 2,5 mg/kg i.p.): 145,2 % of control
- Parkinson-like effect [6]: without nevertheless showing Parkinson-like effect
- mean blood pressure [4]: raised the mean blood pressure
- convulsant activity versus 4-aminopyridine [7]: less convulsant than 4-aminopyridine
- TD50 [7]: 19 mg/kg
- Mean latency (% of control) ([8]; 1 mg/kg i.p.): 120.5 % of control
- Mean latency (% of control) ([8]; 2.5 mg/kg i.p.): 118.8 % of control
- Mean latency (% of control) ([8]; 5 mg/kg i.p., ** P < 0.01 vs control): 136.1 % of control
- minimal effective dose ([8]; Mus musculus, ip, passive avoidance, normal mice, read-out: Active dose (significantly prolonged the latency)): 5 mg/kg
- acute toxicity versus 4-aminopyridine [9]: toxicity lower than 4-aminopiridine
- LD50 [9]: 29 mg/kg
- time of peak of Ach release [10]: 45 '
- toxic phenomena after repeated administration [11]: no toxic phenomenon except for a slight decrease in body weight, increase in the female accompanied by a reduction in food consumption

Structure (SMILES): Nc1c2c(nc3ccccc13)CCCC2 [THA]
- Anti-amnesic activity (% of control) ([1]; ECS amnesia, 0,5 mg/kg i.p.): 72,2 % of control
- Anti-amnesic activity (% of control) [1, 12]: 114,4 % of control
- Anti-amnesic activity (% of control) [1, 13]: 184,5 % of control
- Active dose (significantly prolonged the latency) ([1]; ECS amnesia): 2.5 mg/kg i.p.
- minimal effective dose ([1]; ECS amnesia): 2.5 mg/kg

Structure (SMILES): Nc1ccncc1 [4-aminopyridine, reference compound]
- TD50 [7]: 5 mg/kg
- LD50 [9]: 12 mg/kg
